Laboratory results: PubChem BioAssay (NCI)
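Where inhibition never reached the appropriate level, the endpoint shown equals the highest concentration tested. Otherwise, values were interpolated linearly from a five-concentration, 48-hour dose response in 96-well plates. At the GI50, growth is halved. TGI: total growth inhibition.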

Legend:
Test in all cases: NCI anticancer screen, dose series, 48 h
RXF 393 renal = system: RXF 393 renal
MALME-3M melanoma = system: MALME-3M melanoma
NCI-H23 lung = system: NCI-H23 lung
PC-3 prostate = system: PC-3 prostate
HCT-15 colon = system: HCT-15 colon
SNB-75 CNS = system: SNB-75 CNS
M14 melanoma = system: M14 melanoma
786-0 renal = system: 786-0 renal
SNB-19 CNS = system: SNB-19 CNS
SK-MEL-2 melanoma = system: SK-MEL-2 melanoma
A498 renal = system: A498 renal
DU-145 prostate = system: DU-145 prostate
SK-MEL-28 melanoma = system: SK-MEL-28 melanoma
SF-539 CNS = system: SF-539 CNS
SN12C renal = system: SN12C renal
NCI-H522 lung = system: NCI-H522 lung
HCT-116 colon = system: HCT-116 colon
OVCAR-8 ovarian = system: OVCAR-8 ovarian
UACC-62 melanoma = system: UACC-62 melanoma
NCI-H226 lung = system: NCI-H226 lung
EKVX NSCLC = system: EKVX NSCLC
NCI/ADR-RES ovarian = system: NCI/ADR-RES ovarian
SK-MEL-5 melanoma = system: SK-MEL-5 melanoma
HCC-2998 colon = system: HCC-2998 colon
CAKI-1 renal = system: CAKI-1 renal
MDA-MB-435 = system: MDA-MB-435
MCF7 breast = system: MCF7 breast
MDA-MB-231 breast = system: MDA-MB-231 breast
ACHN renal = system: ACHN renal
T-47D breast = system: T-47D breast
LOX IMVI melanoma = system: LOX IMVI melanoma
SW-620 colon = system: SW-620 colon
OVCAR-5 ovarian = system: OVCAR-5 ovarian
UO-31 renal = system: UO-31 renal
SK-OV-3 ovarian = system: SK-OV-3 ovarian
K-562 leukemia = system: K-562 leukemia
UACC-257 melanoma = system: UACC-257 melanoma
NCI-H460 lung = system: NCI-H460 lung
OVCAR-4 ovarian = system: OVCAR-4 ovarian
RPMI-8226 leukemia = system: RPMI-8226 leukemia
KM12 colon = system: KM12 colon
SF-295 CNS = system: SF-295 CNS
BT-549 breast = system: BT-549 breast
HOP-92 NSCLC = system: HOP-92 NSCLC
CCRF-CEM leukemia = system: CCRF-CEM leukemia
MOLT-4 leukemia = system: MOLT-4 leukemia
U251 CNS = system: U251 CNS
TK-10 renal = system: TK-10 renal
HOP-62 NSCLC = system: HOP-62 NSCLC
IGROV1 ovarian = system: IGROV1 ovarian
OVCAR-3 ovarian = system: OVCAR-3 ovarian
SF-268 CNS = system: SF-268 CNS
HT29 colon = system: HT29 colon

Which results are given for `COc1cc(/C=C2\CC3C4CC=C5C[C@@H](N6CCCC6)CC[C@]5(C)C4CC[C@]3(C)[C@H]2OC(C)=O)ccc1OCCN1CCCCC1` (stereo partly specified)?
GI50 (RXF 393 renal): 1.63 µM; TGI (RXF 393 renal): 3.64 µM; GI50 (MALME-3M melanoma): 0.164 µM; TGI (MALME-3M melanoma): 0.529 µM; GI50 (NCI-H23 lung): 1.68 µM; TGI (NCI-H23 lung): 3.14 µM; GI50 (PC-3 prostate): 1.54 µM; TGI (PC-3 prostate): 3.72 µM; GI50 (HCT-15 colon): 1.37 µM; TGI (HCT-15 colon): 2.8 µM; GI50 (SNB-75 CNS): 2.56 µM; TGI (SNB-75 CNS): 5.03 µM; GI50 (M14 melanoma): 1.58 µM; TGI (M14 melanoma): 3 µM; GI50 (786-0 renal): 0.217 µM; TGI (786-0 renal): 1.89 µM; GI50 (SNB-19 CNS): 2.84 µM; TGI (SNB-19 CNS): 5.83 µM; GI50 (SK-MEL-2 melanoma): 1.87 µM; TGI (SK-MEL-2 melanoma): 3.36 µM; GI50 (A498 renal): 1.76 µM; TGI (A498 renal): 3.41 µM; GI50 (DU-145 prostate): 1.57 µM; TGI (DU-145 prostate): 3.67 µM; GI50 (SK-MEL-28 melanoma): 2.31 µM; TGI (SK-MEL-28 melanoma): 4.8 µM; GI50 (SF-539 CNS): 1.66 µM; TGI (SF-539 CNS): 3.16 µM; GI50 (SN12C renal): 0.775 µM; TGI (SN12C renal): 2.56 µM; GI50 (NCI-H522 lung): 1.67 µM; TGI (NCI-H522 lung): 3.24 µM; GI50 (HCT-116 colon): 0.275 µM; TGI (HCT-116 colon): 0.85 µM; GI50 (OVCAR-8 ovarian): 1.8 µM; TGI (OVCAR-8 ovarian): 3.42 µM; GI50 (UACC-62 melanoma): 1.44 µM; TGI (UACC-62 melanoma): 2.81 µM; GI50 (NCI-H226 lung): 2.14 µM; TGI (NCI-H226 lung): 4.21 µM; GI50 (EKVX NSCLC): 1.99 µM; TGI (EKVX NSCLC): 4.3 µM; GI50 (NCI/ADR-RES ovarian): 1.74 µM; TGI (NCI/ADR-RES ovarian): 3.2 µM; GI50 (SK-MEL-5 melanoma): 1.53 µM; TGI (SK-MEL-5 melanoma): 2.87 µM; GI50 (HCC-2998 colon): 0.397 µM; TGI (HCC-2998 colon): 0.85 µM; GI50 (CAKI-1 renal): 1.95 µM; TGI (CAKI-1 renal): 3.95 µM; GI50 (MDA-MB-435): 1.83 µM; TGI (MDA-MB-435): 3.44 µM; GI50 (MCF7 breast): 3.02 µM; TGI (MCF7 breast): > 100 µM; GI50 (MDA-MB-231 breast): 2.27 µM; TGI (MDA-MB-231 breast): 4.1 µM; GI50 (ACHN renal): 1.91 µM; TGI (ACHN renal): 3.73 µM; GI50 (T-47D breast): 2.25 µM; TGI (T-47D breast): 3.98 µM; GI50 (LOX IMVI melanoma): 1.03 µM; TGI (LOX IMVI melanoma): 2.57 µM; GI50 (SW-620 colon): 0.777 µM; TGI (SW-620 colon): 2.09 µM; GI50 (OVCAR-5 ovarian): 1.46 µM; TGI (OVCAR-5 ovarian): 2.85 µM; GI50 (UO-31 renal): 1.46 µM; TGI (UO-31 renal): 2.83 µM; GI50 (SK-OV-3 ovarian): 2.15 µM; TGI (SK-OV-3 ovarian): 4.39 µM; GI50 (K-562 leukemia): 0.105 µM; TGI (K-562 leukemia): 0.71 µM; GI50 (UACC-257 melanoma): 1.93 µM; TGI (UACC-257 melanoma): 3.91 µM; GI50 (NCI-H460 lung): 3.18 µM; TGI (NCI-H460 lung): > 100 µM; GI50 (OVCAR-4 ovarian): 3.03 µM; TGI (OVCAR-4 ovarian): 8.98 µM; GI50 (RPMI-8226 leukemia): 0.0109 µM; TGI (RPMI-8226 leukemia): 0.119 µM; GI50 (KM12 colon): 0.54 µM; TGI (KM12 colon): 1.4 µM; GI50 (SF-295 CNS): 1.85 µM; TGI (SF-295 CNS): 3.44 µM; GI50 (BT-549 breast): 2.25 µM; TGI (BT-549 breast): 4.13 µM; GI50 (HOP-92 NSCLC): 0.257 µM; TGI (HOP-92 NSCLC): 1.77 µM; GI50 (CCRF-CEM leukemia): 0.0346 µM; TGI (CCRF-CEM leukemia): 0.777 µM; GI50 (MOLT-4 leukemia): 0.036 µM; TGI (MOLT-4 leukemia): 0.638 µM; GI50 (U251 CNS): 1.55 µM; TGI (U251 CNS): 3.02 µM; GI50 (TK-10 renal): 0.211 µM; TGI (TK-10 renal): 1.49 µM; GI50 (HOP-62 NSCLC): 1.49 µM; TGI (HOP-62 NSCLC): 2.87 µM; GI50 (IGROV1 ovarian): 1.59 µM; TGI (IGROV1 ovarian): 3.23 µM; GI50 (OVCAR-3 ovarian): 1.64 µM; TGI (OVCAR-3 ovarian): 3.34 µM; GI50 (SF-268 CNS): 2.26 µM; TGI (SF-268 CNS): 5.6 µM; GI50 (HT29 colon): 1.55 µM; TGI (HT29 colon): > 100 µM
